Here are results for two compounds from patent US5858397A, “Liposomal formulations of mitoxantrone” (priority 1995, dated 1999).

Data set [1] is described as follows: Change in body weight during efficacy studies. The procedure: (§1) Injections were administered in a volume of 200 μL. In order to achieve this volume for the 20 mg/kg dose, the stock mixture was concentrated using Aquacide II. Survival times of the mice were then monitored over a sixty day time course. Increase in life span (ILS %) was calculated as follows: [formula] Maximum tolerated dose was determined by monitoring the weight loss of the mice over a two week period. If the mice lost greater than 30% of the original weight then the mice are terminated.

Data set [2] is described as follows: Toxic dose range finding (maximum tolerated dose) in tumor-free mice. The settings on record: mouse, in vivo. The procedure:
as §1

Data set [3] in a line: in vivo. The following applies: mouse, iv, 10 mg/kg. The protocol:
At 1, 4, 24, and 48 hours, the animals were terminated by CO2 asphyxiation and whole blood was collected via cardiac puncture. The collected blood was immediately placed into EDTA coated tubes (MICROTAINERS® from Becton Dickinson). Subsequently, plasma was prepared by centrifuging the EDTA treated whole blood at 500×g for 10 min. Lipid and drug was assayed via [^3 H]-Cholesteryl hexadecyl ether and I^14 C]-mitoxantrone tracer using a scintillation counter as described above.
An estimation of the amount of mitoxantrone retained in the liposomes that are in the circulation can be made by determining the ratio of mitoxantrone-to-lipid at the indicated time points. This estimation assumes that the level of free drug in the plasma of animals given liposomal mitoxantrone will be negligible.

Data set [4] concerns tumor models and human carcinomas. The settings on record: cited from earlier work.
For data set [5], the system named is L1210. The data set is described as follows: L1210 anti-tumor activity (survival). Format: in vivo, BDF1 mice. The settings on record: for 60 Day Survival / Mean Survival: single; for % ILS (Increase in Life Span): vs untreated control. The protocol: as §1
The antitumor effects of free mitoxantrone and liposomal mitoxantrone were compared using the L1210 tumor model. L1210 is a murine lymphocytic leukemia. […] This provides identical tumor models for the two organs.

SMILES strings stand for the structures. Structures can show the parent of a compound that is named as a salt.

Usually AUC stands for concentration integrated over time. Higher therefore signals more exposure. As for `O=C1c2c(O)ccc(O)c2C(=O)c2c(NCCNCCO)ccc(NCCNCCO)c21` [Free Mitoxantrone, mitoxantrone hydrochloride], the “body weight loss at nadir” value in data set [1] (L1210-bearing mice, free 10 mg/kg, liposomal 20 mg/kg, day 12 to 13) is reported as about 30%. Moreover, the MTD came to 10 mg/kg in data set [1] (mouse, in vivo) and 10 mg/kg in data set [2]. Besides, in data set [3], the AUC amounted to 11.4 ng·h/mL. Also, the “short and long term toxicity compared with doxorubicin” value in data set [4] is “lower short and long term toxicity than doxorubicin”. The toxic side effect result in data set [4] is listed as “myelosuppression”. The compound further had a maximum therapeutic dose in data set [5] (10^4 L1210 cells i.v., treated 24 h later) of 10 mg/kg. Moreover, the “60 Day Survival” value in data set [5] (drug dose 5 mg/kg), in data set [5] (drug dose 10 mg/kg) and in data set [5] (drug dose 20 mg/kg) was 0/5 each time. The “Mean Survival” value in data set [5] (drug dose 5 mg/kg) worked out at 13.6 days; in data set [5] (drug dose 10 mg/kg) it was 16.6 days; in data set [5] (drug dose 20 mg/kg), 12.6 days. For the same compound, the figures for the “% ILS (Increase in Life Span)” value in data set [5] (drug dose 5 mg/kg), in data set [5] (drug dose 10 mg/kg) and in data set [5] (drug dose 20 mg/kg) were 58%, 93% and 47%, respectively. The “maximum % increase in life span” value in data set [5] (maximum over the doses tested) came out at 93%.

Regarding `COc1cccc2c1C(=O)c1c(O)c3c(c(O)c1C2=O)C[C@@](O)(C(=O)CO)C[C@@H]3O[C@H]1C[C@H](N)[C@H](O)[C@H](C)O1` [doxorubicin], in data set [4], the toxic side effect entry is reported as “dose limiting cardiotoxicity”.
